Data from patent US5475032A, “2,4-disulfonyl phenyl butyl nitrone, its salts, and their use as pharmaceuticals” (Oklahoma Medical Research Foundation, priority 1995, dated 1995).
Where two headings read alike, the source gives them in different places.

Legend:
[1] = system: C57BL/6L mice; assay: acute lethality, single i.p. doses of nitrone (Example 9); assay type: in vivo, mouse; conditions: PBN at 560 mg/kg, Compound I at doses nearly twenty times as great
Experimental: As detailed in Table 7. acute lethality in C57BL/6L mice was determined based upon varying sizes of single i.p. doses of nitrone.

[2] = system: lethality from 10 min ischemia; assay: lethality protection in aged gerbils from 10 min ischemia (Example 8); assay type: in vivo, gerbil; conditions: 30 min before ischemia
[3] = system: neuron loss following brain ischemia and reperfusion injury; assay: neuronal density, post-ischemia treatment, compound i.p. 30 min after reperfusion following 5 min ischemia (Example 4); assay type: in vivo, gerbil
[4] = system: acute lethal effects of adriamycin; assay: comparative tests: nitrone pretreatment combined with adriamycin (Example 13); assay type: in vivo, mouse
Excerpt: (§1) All injections were intraperitoneal.

[5] = as above; assay type: in vivo, mouse; conditions: mouse, in vivo, ip; 300 mg/kg with adriamycin; read-out: combined toxicity (lethality)
Excerpt: as §1

[6] = system: infarct volume following middle cerebral occlusion; assay: infarct volume after middle cerebral occlusion (Example 7); assay type: in vivo, C57BL/6J mice; conditions: from 60 min after occlusion for 24 hours
Experimental: The ability of the compound of the invention to reduce infarct volume following an ischemic event was determined.

[7] = system: neuronal loss following ischemia; assay: protection from neuronal loss, i.v. 60 min after reperfusion onset following 5 min ischemia (Example 5); assay type: in vivo, gerbil; conditions: for protection for neuronal loss (neuronal density): 60 min after reperfusion onset
[8] = system: temporal/spatial short term memory following ischemia; assay: 8-arm radial maze test 24 hours after ischemia (Example 6); assay type: in vivo, gerbil
Experimental: Brain injury can manifest itself as behavioral changes. In this experiment, young adult (3-4 months of age) gerbils were tested to determine their ability to perform an 8-arm maze test 24 hours following an ischemic event as described in Example 1. As compared to nonischemic animals, when untreated they committed many more errors. PBN and compound I were administered to some of the test animals.

[9] = system: glutamine synthetase (GS); assay: protection of glutamine synthetase against βAP 25-35 (Example 11); assay type: biochemical, gerbil; conditions: co-incubation with 0.4 mg/ml BAP 25-35
Experimental: (§2) Cytosolic fractions from gerbil neocortex were prepared and enzyme activities determined. Samples were incubated in the presence of different concentrations of the peptide for 10 min prior to assay. Solid symbols represent the effects of the naturally occurring 25-35 fragment. […] Each point is the mean (+/- s.e.) of 5 observations. βAP derived and other cellular sources of free radicals are an important determinant of the initiation and progression of AD.
(§3) Each point is the mean (+/- s.e.) of 3 observations.

[10] = system: creatine kinase (CK); assay: protection of creatine kinase against βAP 25-35 (Example 11); assay type: biochemical, gerbil; conditions: co-incubation with 0.4 mg/ml BAP 25-35
Experimental: as §2, §3

[11] = system: neuron loss following brain ischemia and reperfusion injury; assay: neuronal density after 5 min bilateral carotid occlusion, compound i.p. 30 min before ischemia (Example 3); assay type: in vivo, gerbil; conditions: 30 min before ischemia
Experimental: In the experiments a test compound was administered to groups of six gerbils i.p. as a single dose 30 min before 5 min bilateral carotid occlusion. The density of neuronal nuclei in a 100 micron was measured. Two controls were present--controls which received no test compound and controls which received no test compound and no brain ischemia.

[12] = system: severe trauma ischemia; conditions: in vivo; cited from earlier work
[13] = system: normal or uninjured cells; conditions: cited from earlier work
[14] = doses demonstrated to be possible; conditions: up to 1000 mg/kg/hour and higher, or i.v. bolus 10 to 2500 mg/kg
[15] = system: infarct volume following middle cerebral artery occlusion; conditions: cited from earlier work

CC(C)(C)[N+]([O-])=Cc1ccccc1 [PBN, Alpha-phenyl tert butyl nitrone]
toxicity [1]: significant toxicity
lethality protection (% survived) ([2]; 10 mg/kg): 42%
lethality protection (% survived) ([2]; 32 mg/kg): 50%
lethality protection (% survived) ([2]; 100 mg/kg): 75%
lethality protection (% survived) ([2]; 320 mg/kg): 92%
lethality protection ([2]; Compound I: at high levels): only partially effective
Neuronal nuclei/100 micron field ([3]; 32 mg/kg i.p.): 1.09 Neuronal nuclei/100 micron field
Neuronal nuclei/100 micron field ([3]; 50 mg/kg i.p.): 1.85 Neuronal nuclei/100 micron field
Neuronal nuclei/100 micron field ([3]; 100 mg/kg i.p.): 2.11 Neuronal nuclei/100 micron field
Neuronal nuclei/100 micron field ([3]; 320 mg/kg i.p.): 2.25 Neuronal nuclei/100 micron field
Neuronal nuclei/100 micron field ([3]; 1000 mg/kg i.p.): Toxic
sedation ([4]; 100 mg/kg): slight sedation
sedation ([4]; 300 mg/kg): marked sedation
mortality [5]: 10 to 20%
Infarct Volume ([6]; 1.0 mg/kg/hr i.v.): 17.7 mm^3
Infarct Volume ([6]; 10 mg/kg/hr i.v.): 13.8 mm^3
Infarct Volume ([6]; 100 mg/kg/hr i.v.): Toxic
protection for neuronal loss (neuronal density) ([7]; 0.5 mg/kg single dose i.v.): 0.83
protection for neuronal loss (neuronal density) ([7]; 1.0 mg/kg single dose i.v.): 1.07
protection for neuronal loss (neuronal density) ([7]; 10 mg/kg single dose i.v.): 1.23
effect on neuronal density in control gerbils ([7]; control gerbils without brain injury): Neither PBN nor Compound I. had an effect on neuronal density
errors in 8-arm radial maze ([8]; 1.0 mg/kg/hr for 24 hours): 29.8 errors
errors in 8-arm radial maze ([8]; 32 mg/kg/hr for 24 hours): 18.19 errors
errors in 8-arm radial maze ([8]; 50 mg/kg/hr for 24 hours): 6.23 errors
errors in 8-arm radial maze ([8]; 100 mg/kg/hr for 24 hours): 5.83 errors
error levels ([8]; high doses): less effective
protection of GS against the effects of βAP fragments [9]: asymptotically leveling out at a substantially incomplete level of protection
protection of CK against the effects of βAP fragments [10]: asymptotically leveling out at a substantially incomplete level of protection
Neuronal nuclei/100 micron field ([11]; 3.2 mg/kg i.p.): 0.43 Neuronal nuclei/100 micron field
Neuronal nuclei/100 micron field ([11]; 10 mg/kg i.p.): 1.13 Neuronal nuclei/100 micron field
Neuronal nuclei/100 micron field ([11]; 32 mg/kg i.p.): 1.83 Neuronal nuclei/100 micron field
Neuronal nuclei/100 micron field ([11]; 50 mg/kg i.p.): 3.11 Neuronal nuclei/100 micron field
Neuronal nuclei/100 micron field ([11]; 100 mg/kg i.p.): 3.68 Neuronal nuclei/100 micron field
Neuronal nuclei/100 micron field ([11]; 320 mg/kg i.p.): 3.78 Neuronal nuclei/100 micron field
Neuronal nuclei/100 micron field ([11]; 1000 mg/kg i.p.): Toxic
Neuronal nuclei/100 micron field ([11]; 3200 mg/kg i.p.): Toxic
survival of treated animals vs controls [12]: more likely to survive than controls
effect on normal or uninjured cells [13]: no measurable effect on normal or uninjured cells
death or acute toxicity [14]: death or acute toxicity
infarct volume reduction ([15]; 100 mg/kg i.p. at 0.5, 5, 17, 29 and 41 hours post stroke): approximately 50%
infarct volume reduction ([15]; 100 mg/kg i.p. at 5, 17, 29, and 41 hours post stroke): approximately 50%
